Source: PubChem BioAssay (NCI)
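Results reflect a 48-hour exposure of cells in 96-well plates to compound at five concentrations. TGI: total growth inhibition.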

Experiments:
Assay in all cases: growth of human tumour cells (NCI), 48 h
786-0 renal = test system: 786-0 renal
A498 renal = test system: A498 renal
A549 NSCLC = test system: A549 NSCLC
ACHN renal = test system: ACHN renal
BT-549 breast = test system: BT-549 breast
CAKI-1 renal = test system: CAKI-1 renal
CCRF-CEM leukemia = test system: CCRF-CEM leukemia
COLO 205 colon = test system: COLO 205 colon
DU-145 prostate = test system: DU-145 prostate
EKVX NSCLC = test system: EKVX NSCLC
HCC-2998 colon = test system: HCC-2998 colon
HCT-116 colon = test system: HCT-116 colon
HCT-15 colon = test system: HCT-15 colon
HL-60(TB) leukemia = test system: HL-60(TB) leukemia
HOP-62 NSCLC = test system: HOP-62 NSCLC
HOP-92 NSCLC = test system: HOP-92 NSCLC
HS 578T breast = test system: HS 578T breast
HT29 colon = test system: HT29 colon
IGROV1 ovarian = test system: IGROV1 ovarian
K-562 leukemia = test system: K-562 leukemia
KM12 colon = test system: KM12 colon
LOX IMVI melanoma = test system: LOX IMVI melanoma
M14 melanoma = test system: M14 melanoma
MALME-3M melanoma = test system: MALME-3M melanoma
MCF7 breast = test system: MCF7 breast
MDA-MB-231 breast = test system: MDA-MB-231 breast
MDA-MB-435 = test system: MDA-MB-435
MDA-N = test system: MDA-N
MOLT-4 leukemia = test system: MOLT-4 leukemia
NCI-H226 lung = test system: NCI-H226 lung
NCI-H23 lung = test system: NCI-H23 lung
NCI-H460 lung = test system: NCI-H460 lung
NCI-H522 lung = test system: NCI-H522 lung
NCI/ADR-RES ovarian = test system: NCI/ADR-RES ovarian
OVCAR-3 ovarian = test system: OVCAR-3 ovarian
OVCAR-4 ovarian = test system: OVCAR-4 ovarian
OVCAR-5 ovarian = test system: OVCAR-5 ovarian
OVCAR-8 ovarian = test system: OVCAR-8 ovarian
PC-3 prostate = test system: PC-3 prostate
RPMI-8226 leukemia = test system: RPMI-8226 leukemia
RXF 393 renal = test system: RXF 393 renal
SF-268 CNS = test system: SF-268 CNS
SF-295 CNS = test system: SF-295 CNS
SF-539 CNS = test system: SF-539 CNS
SK-MEL-2 melanoma = test system: SK-MEL-2 melanoma
SK-MEL-28 melanoma = test system: SK-MEL-28 melanoma
SK-MEL-5 melanoma = test system: SK-MEL-5 melanoma
SK-OV-3 ovarian = test system: SK-OV-3 ovarian
SN12C renal = test system: SN12C renal
SNB-19 CNS = test system: SNB-19 CNS
SNB-75 CNS = test system: SNB-75 CNS
SR leukemia = test system: SR leukemia
SW-620 colon = test system: SW-620 colon
T-47D breast = test system: T-47D breast
TK-10 renal = test system: TK-10 renal
U251 CNS = test system: U251 CNS
UACC-257 melanoma = test system: UACC-257 melanoma
UACC-62 melanoma = test system: UACC-62 melanoma
UO-31 renal = test system: UO-31 renal
DLD-1 colon = test system: DLD-1 colon
DMS 114 small cell lung = test system: DMS 114 small cell lung
DMS 273 small cell lung = test system: DMS 273 small cell lung
HOP-18 NSCLC = test system: HOP-18 NSCLC
KM20L2 colon = test system: KM20L2 colon
LXFL 529 NSCLC = test system: LXFL 529 NSCLC
M19-MEL melanoma = test system: M19-MEL melanoma
SNB-78 CNS = test system: SNB-78 CNS
XF 498 CNS = test system: XF 498 CNS

`Cc1ccc(S(=O)(=O)C2=Cc3ccc(C(F)(F)F)cc3C2(O)c2cccc(C(F)(F)F)c2)cc1` (configuration not stated) showed a TGI (786-0 renal) of 3.96 µM, a TGI (A498 renal) of 3.83 µM and a TGI (A549 NSCLC) of 8.61 µM. For the same compound, the TGI (ACHN renal) was 7.64 µM, the TGI (BT-549 breast) was 5.22 µM and the TGI (CAKI-1 renal) was 14.6 µM. For the same compound, the TGI (CCRF-CEM leukemia) was 8.17 µM, the TGI (COLO 205 colon) was 3.43 µM and the TGI (DU-145 prostate) was 10.3 µM. For the same compound, the TGI (EKVX NSCLC) was 9.83 µM, the TGI (HCC-2998 colon) was 4.63 µM and the TGI (HCT-116 colon) was 3.03 µM. For the same compound, the TGI (HCT-15 colon) was 4.27 µM, the TGI (HL-60(TB) leukemia) was 3.66 µM and the TGI (HOP-62 NSCLC) was 18.8 µM. It also gave a TGI (HOP-92 NSCLC) of 4.17 µM, a TGI (HS 578T breast) greater than 27.2 µM and a TGI (HT29 colon) of 5.14 µM. For the same compound, the TGI (IGROV1 ovarian) was 7.03 µM, the TGI (K-562 leukemia) was 6.34 µM and the TGI (KM12 colon) was 4.53 µM. It also gave a TGI (LOX IMVI melanoma) of 3.52 µM, a TGI (M14 melanoma) of 4.83 µM and a TGI (MALME-3M melanoma) of 3.48 µM. For the same compound, the TGI (MCF7 breast) was 4.86 µM, the TGI (MDA-MB-231 breast) was 5.06 µM and the TGI (MDA-MB-435) was 4.28 µM. It also gave a TGI (MDA-N) of 5.88 µM, a TGI (MOLT-4 leukemia) greater than 22.6 µM and a TGI (NCI-H226 lung) of 4.26 µM. It also gave a TGI (NCI-H23 lung) of 6.26 µM, a TGI (NCI-H460 lung) of 6.9 µM and a TGI (NCI-H522 lung) of 3.84 µM. The TGI (NCI/ADR-RES ovarian) was 8.51 µM, the TGI (OVCAR-3 ovarian) was 3.01 µM and the TGI (OVCAR-4 ovarian) was 4.05 µM. It also gave a TGI (OVCAR-5 ovarian) of 5.07 µM, a TGI (OVCAR-8 ovarian) of 4.44 µM and a TGI (PC-3 prostate) of 8.03 µM. The TGI (RPMI-8226 leukemia) was greater than 23 µM, the TGI (RXF 393 renal) was 6.26 µM and the TGI (SF-268 CNS) was 8.65 µM. The TGI (SF-295 CNS) was 6.87 µM, the TGI (SF-539 CNS) was 3.84 µM and the TGI (SK-MEL-2 melanoma) was 3.57 µM. It also gave a TGI (SK-MEL-28 melanoma) of 3.75 µM, a TGI (SK-MEL-5 melanoma) of 3.35 µM and a TGI (SK-OV-3 ovarian) of 28.2 µM. For the same compound, the TGI (SN12C renal) was 4.47 µM, the TGI (SNB-19 CNS) was 16.8 µM and the TGI (SNB-75 CNS) was 13.9 µM. For the same compound, the TGI (SR leukemia) was 8.14 µM, the TGI (SW-620 colon) was 3.85 µM and the TGI (T-47D breast) was 11 µM. It also gave a TGI (TK-10 renal) of 5.96 µM, a TGI (U251 CNS) of 3.6 µM and a TGI (UACC-257 melanoma) of 3.93 µM. The TGI (UACC-62 melanoma) was 5.71 µM and the TGI (UO-31 renal) was 6.11 µM.
Compound `O=C(C[n+]1ccccc1)NNC(=O)/C(=C/c1ccc2c(c1)OCO2)NC(=O)c1ccccc1` has a TGI (786-0 renal) greater than 90.7 µM, a TGI (A498 renal) greater than 100 µM and a TGI (A549 NSCLC) greater than 100 µM. The TGI (ACHN renal) was greater than 100 µM, the TGI (CAKI-1 renal) was greater than 100 µM and the TGI (CCRF-CEM leukemia) was 65 µM. It also gave a TGI (COLO 205 colon) greater than 65.5 µM, a TGI (DLD-1 colon) greater than 62.2 µM and a TGI (DMS 114 small cell lung) of 46.4 µM. For the same compound, the TGI (DMS 273 small cell lung) was greater than 69.8 µM, the TGI (EKVX NSCLC) was greater than 100 µM and the TGI (HCC-2998 colon) was greater than 100 µM. It also gave a TGI (HCT-116 colon) greater than 100 µM, a TGI (HCT-15 colon) greater than 63.5 µM and a TGI (HL-60(TB) leukemia) of 64.8 µM. It also gave a TGI (HOP-18 NSCLC) greater than 84.7 µM, a TGI (HOP-62 NSCLC) greater than 100 µM and a TGI (HOP-92 NSCLC) greater than 100 µM. The TGI (HT29 colon) was greater than 100 µM, the TGI (IGROV1 ovarian) was greater than 100 µM and the TGI (K-562 leukemia) was greater than 100 µM. It also gave a TGI (KM12 colon) greater than 100 µM, a TGI (KM20L2 colon) greater than 100 µM and a TGI (LOX IMVI melanoma) of 49 µM. The TGI (LXFL 529 NSCLC) was greater than 77.2 µM, the TGI (M14 melanoma) was greater than 100 µM and the TGI (M19-MEL melanoma) was greater than 100 µM. It also gave a TGI (MALME-3M melanoma) greater than 100 µM, a TGI (MOLT-4 leukemia) of 82.7 µM and a TGI (NCI-H226 lung) greater than 92.4 µM. The TGI (NCI-H23 lung) was greater than 100 µM, the TGI (NCI-H460 lung) was 98.3 µM and the TGI (NCI-H522 lung) was greater than 70.8 µM. It also gave a TGI (OVCAR-3 ovarian) greater than 100 µM, a TGI (OVCAR-4 ovarian) greater than 94.5 µM and a TGI (OVCAR-5 ovarian) greater than 100 µM. It also gave a TGI (OVCAR-8 ovarian) greater than 85 µM, a TGI (RPMI-8226 leukemia) of 63 µM and a TGI (RXF 393 renal) greater than 83.9 µM. It also gave a TGI (SF-268 CNS) greater than 100 µM, a TGI (SF-295 CNS) greater than 100 µM and a TGI (SF-539 CNS) of 75.1 µM. It also gave a TGI (SK-MEL-2 melanoma) greater than 100 µM, a TGI (SK-MEL-28 melanoma) greater than 100 µM and a TGI (SK-MEL-5 melanoma) of 98.4 µM. It also gave a TGI (SK-OV-3 ovarian) greater than 100 µM, a TGI (SN12C renal) greater than 100 µM and a TGI (SNB-19 CNS) greater than 100 µM. It also gave a TGI (SNB-75 CNS) greater than 95.9 µM, a TGI (SNB-78 CNS) greater than 100 µM and a TGI (SR leukemia) of 36.6 µM. It also gave a TGI (SW-620 colon) greater than 100 µM, a TGI (TK-10 renal) greater than 100 µM and a TGI (U251 CNS) greater than 76.5 µM. For the same compound, the TGI (UACC-257 melanoma) was greater than 100 µM, the TGI (UACC-62 melanoma) was greater than 100 µM and the TGI (UO-31 renal) was greater than 100 µM. The TGI (XF 498 CNS) was greater than 83.5 µM.
For `Cc1ccc(C2CC(c3ccco3)=NN2c2ccccc2)o1` (configuration not stated), the TGI (786-0 renal) was greater than 100 µM, the TGI (A549 NSCLC) was greater than 100 µM and the TGI (ACHN renal) was greater than 100 µM. For the same compound, the TGI (CCRF-CEM leukemia) was greater than 100 µM, the TGI (COLO 205 colon) was greater than 100 µM and the TGI (DMS 114 small cell lung) was greater than 100 µM. For the same compound, the TGI (DMS 273 small cell lung) was greater than 100 µM, the TGI (EKVX NSCLC) was greater than 100 µM and the TGI (HCT-116 colon) was greater than 100 µM. It also gave a TGI (HCT-15 colon) greater than 100 µM, a TGI (HL-60(TB) leukemia) greater than 100 µM and a TGI (HOP-62 NSCLC) greater than 100 µM. It also gave a TGI (HT29 colon) greater than 100 µM, a TGI (IGROV1 ovarian) greater than 100 µM and a TGI (K-562 leukemia) greater than 100 µM. For the same compound, the TGI (KM12 colon) was greater than 100 µM, the TGI (KM20L2 colon) was greater than 100 µM and the TGI (LOX IMVI melanoma) was greater than 100 µM. It also gave a TGI (LXFL 529 NSCLC) greater than 100 µM, a TGI (M14 melanoma) greater than 100 µM and a TGI (M19-MEL melanoma) greater than 100 µM. It also gave a TGI (MALME-3M melanoma) greater than 100 µM, a TGI (MOLT-4 leukemia) greater than 100 µM and a TGI (NCI-H226 lung) greater than 100 µM. For the same compound, the TGI (NCI-H23 lung) was greater than 100 µM, the TGI (NCI-H460 lung) was greater than 100 µM and the TGI (NCI-H522 lung) was greater than 100 µM. For the same compound, the TGI (OVCAR-3 ovarian) was greater than 100 µM, the TGI (OVCAR-4 ovarian) was greater than 100 µM and the TGI (OVCAR-5 ovarian) was greater than 100 µM. The TGI (OVCAR-8 ovarian) was greater than 100 µM, the TGI (RPMI-8226 leukemia) was greater than 100 µM and the TGI (RXF 393 renal) was greater than 100 µM. The TGI (SF-268 CNS) was greater than 100 µM, the TGI (SF-295 CNS) was greater than 100 µM and the TGI (SF-539 CNS) was greater than 100 µM. For the same compound, the TGI (SK-MEL-2 melanoma) was greater than 100 µM, the TGI (SK-MEL-28 melanoma) was greater than 100 µM and the TGI (SK-MEL-5 melanoma) was greater than 100 µM. The TGI (SN12C renal) was greater than 100 µM, the TGI (SNB-19 CNS) was greater than 100 µM and the TGI (SNB-75 CNS) was greater than 100 µM. The TGI (SNB-78 CNS) was greater than 100 µM, the TGI (SR leukemia) was greater than 100 µM and the TGI (SW-620 colon) was greater than 100 µM. For the same compound, the TGI (TK-10 renal) was greater than 100 µM, the TGI (U251 CNS) was greater than 100 µM and the TGI (UACC-62 melanoma) was greater than 100 µM. The TGI (UO-31 renal) was greater than 100 µM and the TGI (XF 498 CNS) was greater than 100 µM.
